# Measured values published in patent US12568963B2, “Compounds and compositions for nematode treatment” (IOWA STATE UNIVERSITY RESEARCH FOUNDATION, INC., priority 2020, dated 2026).
# “And” between values parts separate entries of the source, which are not always exact repeats. Equal entries are not always repeated. Where two headings read alike, the source gives them in different places. Marks after values point to notes of the source that are not given here.
# Key:
# [1] = system: SCN; details: for SCN Population Densities 34 DAP / SCN Population Densities 64 DAP / SCN Population Densities harvest / Biomass at harvest, total / Biomass at harvest, seed: susceptible soybean; for SCN Population Densities 34 DAP: 34 days after planting; for SCN Population Densities 64 DAP: 64 days after planting; for Biomass at harvest, total: dry weight of all plants per microplot; for Biomass at harvest, seed: seed weight per microplot
# Description: Microplots were constructed by inserting 1-m-diameter by 0.25-m-tall circles of plastic drainage pipe into the soil in a field on a university-owned research farm located 10 km (6 miles) due west of Ames, IA. The field was not infested with SCN prior to being infested for the experiment.
# The soil in the top 20 cm of each microplot was loosened, turned over, and artificially infested with approximately 570,000 SCN eggs contained within cysts in 1 liter of soil from greenhouse cultures. The SCN inoculum was applied in a band across the middle of the microplot (FIG. 5A), then 1.65 L of treatment solution were applied over the infested soil. […] Two different control treatments consisted of microplots receiving 1.65 L of autoclaved, deionized water and microplots receiving 1.65 L of the solvent used to dilute the compounds. The SCN-infested soil inoculum and applied liquid treatment were rototilled into the soil in each microplot, then 40 seeds of the SCN-susceptible variety “Williams 82” were planted in a single, central row within each microplot (FIG. 5B). Similarly, seeds of the SCN-resistant variety “Jack” were planted in microplots infested with SCN inoculum and treated with water as a third control treatment. There were four replications of each of the six treatments arranged in a randomized complete block design. Microplots were spaced 1 m apart in rows separated by 3 m to avoid cross contamination among microplots (FIG. 5F). Plants were grown for the entire 2020 growing season (FIGS. 5C through 5H).
# The total number of plants growing in each microplot were counted (i.e., a “stand count”) 34 days after planting. A total of five soil cores, 2 cm in diameter and 15 to 20 cm deep, were collected from the root zone on either side of the row of soybean plants in each microplot 34 days after planting, 64 days after planting, and when the plants were removed from the microplots to determine the SCN population densities. SCN requires approximately 30 days to complete a single generation. […] SCN cysts (dead females full of eggs) were extracted from the soil samples using a wet sieving method, and eggs were released from the recovered cysts by crushing cysts with a motorized rubber stopper. Recovered eggs were stained with acid fuchsin and counted under a microscope to determine their number per 100 cm^3 of soil.
# The stems of soybean plants in each microplot were cut at the soil line, and all plants from each microplot were placed in large paper bags and stored in an unheated shed until they were further processed. The dry weight of all plants in each microplot was determined (total plant biomass at harvest), and then all plants from each microplot were fed through a plot combine to collect and weigh the seeds (seed biomass).
# [2] = Solubility in the solvent system / water; type: physicochemical
# Experimental: Several tested compounds were obtained commercially while others were synthesized from simple starting materials (see Example 1, supra). Compounds were dissolved in a solvent containing 0.08% ethanol, 0.08% TRITON™ X-100, and nano-purified water and were tested at 10 and 100 ppm.
# Almost all compounds were tested at 100 ppm, provided they were sufficiently soluble in the solvent system at this concentration.
# [3] = system: M. incognita; test: RKN quick sand assay (cucumber root galling); type: in vivo; details: 15 days after infestation with 2,000 M. incognita eggs; abamectin 100 ppm drench; solvent control 24%
# Experimental: Deionized water, 100 ppm abamectin, and solvent were used as controls. […] To date, compounds were tested in three different experimental runs, with some compounds being tested twice and others once. A beta regression model was used to estimate the percent of galling for each treatment in each run. As with the hatching data analyses, a test of marginal means was performed to determine the estimated percent of galling in each treatment over all runs.
# [4] = system: SCN eggs; test: SCN hatching assay (continuous and short-term exposure); details: in vivo
# Experimental: Two similar assays ran synchronously. For both, approximately 300 eggs were pipetted onto 20 mm-diameter plastic microsieves and placed in a six-well plate and incubated at 25° C. in 3 mL of treatment (FIG. 1A). In a continuous exposure assay, eggs (FIG. 1B) were incubated in treatments for 15 days, and in a short-term exposure assay, eggs were incubated in treatments for one day, rinsed, then incubated in deionized water for 14 days. The number of hatched second-stage juveniles (FIG. 1B) was determined for both assays after 3, 6, 9, 12, and 15 days when the microsieves containing the eggs were moved to an empty well and fresh treatment solution was added. […] Compounds were tested over twelve different experimental runs in total, with some tested three times, others twice, and some once.
# The number of hatched and unhatched juveniles of SCN in each treatment were subjected to an analysis with a quasibinomial generalized linear model to estimate the percent hatching for each treatment in each individual experimental run. Then, a test of marginal means was done to determine the estimated percent hatching in each treatment over all runs. […] Analysis were performed on four different treatment groups: continuous 100 ppm, short term 100 ppm, continuous 10 ppm, and short term 10 ppm.
# Because of the complexity of the experimental design and the large variation in hatch rates between different testing blocks, as well as the long duration over which testing has occurred, the statistical analysis is not straight-forward. First, within each block bi, the mean μi hatch rate (in percent) in the solvent control is calculated (in blocks with both short-term and continuous exposure, these two testing methods are analyzed independently). For each treatment hatch rate xj in block bi, a “hatching score” hij is the calculated as
# The arcsine transformation is used to account for the fact that calculating the ratio of hatching is subject to non-linear effects. A general linear model is then used to account for additional block effects, and Dunnett's adjustment is used as the multiple comparison procedure to control the familywise error rate, as all treatments are compared to the solvent control. […] These controls were not used in the calculation of significance other than as controls common to each block in the unbalanced incomplete block design experiment.
# The estimate column contains an estimate of the difference in hatch rate modulation between the solvent control and the treatment. This is estimated as a percentage hatch rate of the control. For reliability of the magnitude of the effect, more than one block is needed. Due to the high variation in solvent control hatch rates between blocks, some percentage modulations may fall outside the expected range (e.g., below −100%).
# Due to the arctangent/tangent conversions, the standard errors of the mean (column SE) are very rough estimates of the standard error. However, the p value column contains the actual p-values.
compound,measurement,setting,value
"O=C(/C=C/c1ccc(Cl)cc1)C1CC1 [JSK3087, 4-Chlorostyryl Cyclopropyl Ketone]",soil SCN egg population densities 64 days after planting versus susceptible/water treatment,"[1]; 100 ppm solution, LSD alpha = 0.10",significantly lower
same,SCN Population Densities 34 DAP,[1]; 100 ppm solution,"7,275 # eggs per 100 cm^3 soil"
same,SCN Population Densities 64 DAP,[1]; 100 ppm solution,"4,700 # eggs per 100 cm^3 soil"
same,SCN Population Densities harvest,"[1]; 100 ppm solution, at harvest","6,400 # eggs per 100 cm^3 soil"
same,"Biomass at harvest, total",[1]; 100 ppm solution,668 g
same,"Biomass at harvest, seed",[1]; 100 ppm solution,327 g
same,seed weights (analogous to grain yield) versus susceptible/water treatment,[1]; at harvest,significantly greater
O=CC(Br)=Cc1ccccc1 [a-bromocinnamaldehyde],solubility in water,[2],low solubility
C(=C\C1SCCS1)/c1ccccc1 [JSK3011],solubility in water,"[2]; not sufficiently soluble at 100 ppm in solvent system, only tested at 10 ppm",low solubility
abamectin,percentage galling of cucumber roots,[3],0%
COc1cc(/C=C/C=O)ccc1O [4H3MC],"estimate (difference in hatch rate modulation between solvent control and treatment, as percentage hatch rate of the control)",[4],−55.3%
N#CC=Cc1ccccc1 [cinnamonitrile],"estimate (difference in hatch rate modulation between solvent control and treatment, as percentage hatch rate of the control)",[4],−53.8%
"O=S(=O)([O-])[O-].[Zn+2] [zinc sulfate, reference compound]","estimate (difference in hatch rate modulation between solvent control and treatment, as percentage hatch rate of the control)",[4],54.7% and 54.9%
CC(=O)C=Cc1ccccc1 [methyl styryl ketone],"estimate (difference in hatch rate modulation between solvent control and treatment, as percentage hatch rate of the control)",[4],−75.4% and −85%
"Cc1ccc(C=C[N+](=O)[O-])cc1 [4-M-BNS, 4-methyl beta-nitrostyrene]",SCN Population Densities 34 DAP,[1]; 100 ppm solution,"5,800 # eggs per 100 cm^3 soil"
same,SCN Population Densities 64 DAP,[1]; 100 ppm solution,"7,400 # eggs per 100 cm^3 soil"
same,SCN Population Densities harvest,"[1]; 100 ppm solution, at harvest","9,800 # eggs per 100 cm^3 soil"
same,"Biomass at harvest, total",[1]; 100 ppm solution,654 g
same,"Biomass at harvest, seed",[1]; 100 ppm solution,322 g
same,seed weights (analogous to grain yield) versus susceptible/water treatment,[1]; in vivo,significantly greater
same,soil SCN egg population densities 64 days after planting versus susceptible/water treatment,[1]; in vivo,significantly lower
